Results as given in US20110104301A1, “METHODS OF REDUCING PAIN AND INFLAMMATION” (Georgetown University, A Congressionally Chartered …, priority 2008, published 2011).

Tests used:
[1] = molecular target: T1, Drosophila TRPA1 (Drosophila melanogaster, UniProt Q7Z020); test: Current-voltage recordings in dTRPA1-expressing HEK293 cells; assay type: cell-based; conditions: desflurane at concentrations up to 3 mM
T1 construct: expressed in transfected cells; host or cells: HEK293
T1 sequence (Q7Z020 1-1197): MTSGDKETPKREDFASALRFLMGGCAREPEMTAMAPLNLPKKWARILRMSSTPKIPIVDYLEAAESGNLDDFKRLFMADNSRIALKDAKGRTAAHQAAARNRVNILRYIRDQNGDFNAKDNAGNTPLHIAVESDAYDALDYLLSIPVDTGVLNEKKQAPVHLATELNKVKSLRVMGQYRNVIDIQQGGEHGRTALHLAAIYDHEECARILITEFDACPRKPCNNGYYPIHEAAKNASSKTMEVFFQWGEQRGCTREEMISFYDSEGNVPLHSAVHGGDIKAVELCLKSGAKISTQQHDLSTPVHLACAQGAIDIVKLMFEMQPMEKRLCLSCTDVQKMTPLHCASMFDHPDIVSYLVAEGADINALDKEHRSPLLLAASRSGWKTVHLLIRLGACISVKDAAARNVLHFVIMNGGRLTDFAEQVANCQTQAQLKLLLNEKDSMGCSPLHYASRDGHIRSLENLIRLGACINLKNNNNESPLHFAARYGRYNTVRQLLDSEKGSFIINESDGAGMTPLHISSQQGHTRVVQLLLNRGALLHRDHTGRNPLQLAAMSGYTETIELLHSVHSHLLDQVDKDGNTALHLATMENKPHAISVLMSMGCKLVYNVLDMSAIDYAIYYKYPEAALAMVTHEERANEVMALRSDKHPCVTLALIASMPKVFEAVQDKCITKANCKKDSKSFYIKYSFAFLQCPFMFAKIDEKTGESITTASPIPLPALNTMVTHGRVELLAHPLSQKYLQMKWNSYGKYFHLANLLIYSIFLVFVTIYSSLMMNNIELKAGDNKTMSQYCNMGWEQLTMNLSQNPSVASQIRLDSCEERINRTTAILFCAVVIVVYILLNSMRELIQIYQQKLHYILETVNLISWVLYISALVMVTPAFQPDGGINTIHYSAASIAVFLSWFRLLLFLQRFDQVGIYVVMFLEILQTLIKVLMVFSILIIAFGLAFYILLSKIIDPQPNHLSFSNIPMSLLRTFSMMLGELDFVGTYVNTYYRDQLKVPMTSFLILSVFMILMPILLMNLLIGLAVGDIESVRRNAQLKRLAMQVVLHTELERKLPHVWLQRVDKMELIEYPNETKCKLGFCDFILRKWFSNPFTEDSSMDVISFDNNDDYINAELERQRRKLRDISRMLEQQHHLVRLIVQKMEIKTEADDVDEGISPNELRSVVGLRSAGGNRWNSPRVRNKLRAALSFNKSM
Method: (§1) A genetic approach was used to identify critical sites in TRPA1 and TRPV1 required for activation by general anesthetics. Drosophila TRPA1 is insensitive to desflurane (at concentrations up to 3 mM). […] Note that dTRPA1 is insensitive to AITC. Next, several chimeric TRP proteins containing dTRPA1 (unresponsive to desflurane) and mTRPA1 were tested. For the dTRPA1-mN chimera, the mouse 720 amino acid N-terminus was exchanged for the drosophila N-terminus. The N-terminal domain contains essential binding sites for AITC, and therefore studying this chimera tests an important role for the N-terminus in anesthetic-sensing. […] The mTRPA1-dTM5 construct was then studied, which is the mouse protein containing the fifth transmembrane domain of the drosophila protein.

[2] = test system: mTRPA1-dTM5; test: Current-voltage recordings of chimera mTRPA1-dTM5; assay type: cell-based
Method: as §1

[3] = test system: DRG neurons from TRPA1-null mice; test: Ca2+ imaging in DRG neurons from TRPA1-null mice; assay type: cell-based, mouse; conditions: desflurane n=125, propofol n=120
Method: Ca^2+ Imaging. Neurons were loaded with 1 μM Fluo4-AM (Molecular Probes) for 20 min and washed for a further 10-20 min before recording. The dye was excited at 488±15 nm. Emitted fluorescence was filtered with a 535±25 nm bandpass filter, captured by a SPOT RT digital camera (Diagnostic Instruments) and read into a computer. Analysis was performed offline by using Simple PCI software (Compix Inc.).

[4] = molecular target: TRPV1 (Rattus norvegicus, UniProt O35433); test: Whole-cell patch-clamp of TRPV1-expressing HEK293 cells; assay type: cell-based; design: expressed in transfected cells; host or cells: HEK 293F (Invitrogen), co-transfected with GFP cDNA
Method: Electrophysiology. […] Whole-cell and single-channel patch-clamp recordings were performed by using an EPC8 amplifier (HEKA Electronics). For whole-cell and excised patch recordings the bath solution contained 140 mMNaCl, 4 mMKCl, 1 mMMgCl2, 1.2 mMCaCl2, 10 mMHepes, 10 mM glucose, pH 7.3. For cell-attached experiments, NaCl was replaced with KCl in the bath solution. […] For neuronal recording NaCl was replaced with K-gluconate (plus 1 mMATP, 0.2 mM GTP). Solutions were applied via a gravity-fed system. […] Voltage-dependent properties were measured as described in Matt and Ahern, J. Physiol. […] The baseline currents under control conditions were subtracted. For cell-attached experiments, peak amplitudes were measured from all-points histograms, and open probability was measured as NPo>750 ms. Defolliculated Xenopus laevis oocytes were injected with ≈10 ng of hTRPA1 (gift of Ardem Patapoutian, The Scripps Research Institute, La Jolla, Calif.).
HEK cell and sensory neuron electrophysiology. […] Cell cultures were maintained at 37° C. with 5% CO2. Cells were transfected with rat TRPV 1 (gift of David Julius), and GFP cDNA using Lipofectamine™ Transfection Reagent (Invitrogen) and used 24-48 h after transfection. Nodose ganglia were obtained from adult mice (C57B16/J and TRPV1-null), cut, digested with collagenase, and cultured in Neurobasal +2% B-27 medium (Invitrogen), 0.1% L-glutamine and 1% penicillin/streptomycin on poly-D lysine-coated glass coverslips at 37° C. in 5% CO2. Neurons were used within 24-36 hr of culture. Whole-cell and single-channel patch clamp recordings were performed using an EPC8 amplifier (HEKA). The current signal was low-pass filtered at 1-3 kHz and sampled at 4 kHz. Currents were further filtered for display purposes. For whole-cell and excised patch recordings the bath solution contained (in mM): 140 NaCl, 4 KCl, 1 MgCl2, 1 EGTA, 10 HEPES, 10 glucose pH 7.3 (290 mOsm). The pipette solution contained (in mM): 140 CsC1, 10 NaCl, 10 HEPES, 5 EGTA, 2 Mg ATP and 0.03 GTP, pH 7.3. The peak amplitudes measured either during the prepulse or the tail current (within 1 ms) were plotted as a function of the test potential and normalized to the maximal current obtained from the following Boltzmann function: […]

Chain of TRPV1 (O35433 whole entry): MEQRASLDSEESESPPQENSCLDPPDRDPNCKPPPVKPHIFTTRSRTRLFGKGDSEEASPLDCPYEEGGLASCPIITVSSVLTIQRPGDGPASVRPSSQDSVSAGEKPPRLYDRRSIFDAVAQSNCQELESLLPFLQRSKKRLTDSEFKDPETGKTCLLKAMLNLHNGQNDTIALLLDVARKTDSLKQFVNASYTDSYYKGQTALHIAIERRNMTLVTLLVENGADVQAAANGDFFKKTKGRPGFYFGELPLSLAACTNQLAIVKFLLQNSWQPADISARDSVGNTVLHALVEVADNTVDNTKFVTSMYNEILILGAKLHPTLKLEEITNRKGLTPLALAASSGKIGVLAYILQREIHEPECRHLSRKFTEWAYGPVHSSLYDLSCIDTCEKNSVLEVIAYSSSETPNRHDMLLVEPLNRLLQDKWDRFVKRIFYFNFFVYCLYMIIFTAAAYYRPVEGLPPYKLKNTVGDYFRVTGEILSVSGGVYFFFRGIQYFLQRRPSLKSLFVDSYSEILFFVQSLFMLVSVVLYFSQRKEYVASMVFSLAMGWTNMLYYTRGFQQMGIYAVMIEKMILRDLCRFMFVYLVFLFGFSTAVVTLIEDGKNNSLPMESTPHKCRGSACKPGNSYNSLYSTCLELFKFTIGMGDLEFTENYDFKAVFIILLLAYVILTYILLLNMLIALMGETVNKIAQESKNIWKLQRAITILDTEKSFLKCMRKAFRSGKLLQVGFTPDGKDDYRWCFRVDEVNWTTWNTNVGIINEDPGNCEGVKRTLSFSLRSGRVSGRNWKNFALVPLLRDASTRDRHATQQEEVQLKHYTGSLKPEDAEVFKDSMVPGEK

Structure (SMILES) | Sensitivity of Drosophila TRPA1 [1] | Sensitivity of mTRPA1-dTM5 chimera [2] | Ca2+ responses in neurons from TRPA1-null mice [3] | Activation of TRPV1 currents ([4]; 0.9 mM (2.9 MAC)) | Currents evoked after PDBu treatment in TRPV1-expressing HEK293 cells ([4]; VGA 0.9 mM, PDBu 500 nM, room temperature (25° C.)) | Effect on TRPV1 when applied together with saturating octanol ([4]; isoflurane 0.9 mM + octanol 1.8 mM) | Enhancement of maximal voltage-evoked TRPV1 current ([4]; isoflurane 0.9 mM, n=5) | Reduction of TRPV1 V1/2 ([4]; isoflurane 0.9 mM, n=5) | Effects at TRPV1 at holding potential −50 mV ([4]; isoflurane 0.9 mM, octanol 1 mM) | V1/2 of TRPV1 voltage activation with isoflurane (Boltzmann fit) ([4]; isoflurane 0.9 mM, control 161.5±2.7 mV)
FC(F)OC(F)C(F)(F)F (stereo not shown) [desflurane] | insensitive | abolished | no responses |  |  |  |  |  |  | 
FC(F)OC(Cl)C(F)(F)F (stereo not shown) [isoflurane] |  |  |  | failed to activate | activates currents | negligible effects | 15±6% | 23.0±6.2 mV | negligible effects | 129.0±3.6 mV
